Experimental findings from patent US20140206992A1, “METHOD FOR DIAGNOSING CANCER” (THE UNIVERSITY OF TOKYO, priority 2010, published 2014) are described below.

One assay has as its system LAP. The assay is described as follows: Enzyme specificity: reaction with LAP. The class given is biochemical. As to the method: Enzyme specificity of Compound (2) was examined. The DMSO solution (5 mM) in a volume of 3 μL was dissolved in 3 mL of a 0.1 M sodium phosphate buffer (pH 7.4) at a final concentration of 5 μM, and LAP (0.4 U) was added to the solution to perform the enzymatic reaction at 37° C.

The subject of assay [1] is γ-glutamyltranspeptidase (GGT, equine kidney). The assay is described as follows: Enzymatic reaction of the fluorescent probe with γ-glutamyltranspeptidase (GGT). Format: biochemical. Particulars: 5 μM compound, excitation 501 nm. On the procedure:
Compound (2) (γGlu-RhoHM) formed by binding the acyl residue derived from glutamic acid to one amino group of Compound (1) (RhoHM) was dissolved in a neutral phosphate buffer, and γ-glutamyltranspeptidase (GGT, equine kidney, SIGMA G9270-100UN) was reacted with the solution. Specifically, 3 μL of a […] of the compound in dimethyl sulfoxide (DMSO) was dissolved at a final concentration of 5 μM in 3 mL of a 0.1 M sodium phosphate buffer (pH 7.4), and GGT (1.1 U) was added for the enzymatic reaction at 37° C. The excitation wavelength was 501 nm.
The DMSO solution of the compound (5 mM) in a volume of 3 μL was dissolved in 3 mL of a 0.1 M sodium phosphate buffer (pH 7.4) at a final concentration of 5 μM, and the enzymatic reaction was performed at 37° C. The values of fluorescence intensity observed with each amount of the enzyme 9 minutes after the addition of the enzyme were plotted. The excitation wavelength was 501 nm, and the fluorescence emission wavelength was 524 nm.

The subject of assay [2] is SHIN3 cells derived from human ovarian cancer (peritoneal dissemination model). Nature of the assay: Live imaging of cancer model mouse using fluorescent endoscope. Format: in vivo. Particulars: 300 μL of 50 μM in PBS sprayed from endoscope tip. The text has this: (§1) Disseminated metastasis of ovarian cancer to the peritoneum is known as a generally-occurring lethal complication of ovarian cancer. Such metastasis to the peritoneum begins to occur at a relatively early stage of ovarian cancer, the tumor invades the […], and falls into the abdominal cavity, and as a result, the tumor metastasizes to the other organs in the abdominal cavity as seeds are scattered (dissemination metastasis). In order to experimentally reproduce this phenomenon, SHIN3 cells of ovarian cancer origin were intraperitoneally administered to athymic mice to prepare a peritoneal dissemination model (Neoplasia, 8, pp. 607-612, 2006).
The SHIN3 cells derived from human ovarian cancer were cultured at 37° C. in the RPMI 1640 medium containing 10% FBS, 100 U/mL of penicillin, and 100 μg/mL of streptomycin under 5% CO2. After the cells reached subconfluent, the cells were washed with PBS (phosphate buffered saline), and removed with Trypsin-EDTA so that individual cells were separated. The treated cells were centrifuged (100×g, 4° C., 3 minutes), and after the supernatant was discarded, ice-cooled PBS was added to the cells to suspend them at a cell density of 1×10^6 cells/300 μL. […]
A small hole was formed in the abdominal part of the peritoneal dissemination model mouse under isoflurane anesthesia, a fluorescence endoscope was inserted into the abdominal cavity through the hole, and 300 μL of a solution of Compound (2) (γGlu-RhoHM) in PBS (50 μM) was sprayed in a misty state from the tip of the endoscope. Then, an excitation light of 450 to 480 nm was irradiated, and fluorescence of 516 to 556 nm was observed over time to obtain fluorescence endoscope movies and images. In each of the results obtained immediately after the spray (0 sec), and 30 seconds, 60 seconds, 90 seconds, and 10 minutes after the spray, a white light image is shown on the left side, and a fluorescence image is shown on the right side. The “white light image” is an image obtained in a usual endoscope mode, not a fluorescence mode for comparison.

For assay [3] the test system is unchanged. The assay is described as follows: Fluorescence imaging using cancer model mouse (peritoneal dissemination model). Format: in vivo, athymic mice. Particulars: 300 μL of 50 μM in PBS i.p., 30 minutes after administration, from outside the body and after abdominal section.
Source text: as §1, with “2006). […]” for “2006).”
A solution of Compound (2) (γGlu-RhoHM) in PBS (50 μM) in a volume of 300 μL was intraperitoneally (i.p.) administered to the peritoneal dissemination model mice. Fluorescence imaging was performed by irradiating an excitation light of 450 to 480 nm from the outside of the mouse body under anesthesia 30 minutes after the i.p. administration, and observing fluorescence of 516 to 556 nm. Further, after the mice were sacrificed with CO2 gas, and exsanguination was performed, abdominal section was performed with surgery appliances for small animals to expose the abdominal cavity, an excitation light of 445 to 490 nm was irradiated, and fluorescence was measured at every 10 nm from 520 to 800 nm to obtain fluorescence spectrum images. […]

`Nc1ccc2c(c1)Oc1cc(NC(=O)CC[C@H](N)C(=O)O)ccc1C21OCc2ccccc21` (some centres unmarked) [Compound (2), γGlu-RhoHM]: the “increase of fluorescence intensity after reaction with LAP” value in the assay with LAP (5 μM compound, 0.1 M sodium phosphate buffer pH 7.4, LAP 0.4 U, 37° C.) was “increase of fluorescence intensity was not observed”. Besides, the “enzyme specificity (GGT versus LAP)” value with LAP (conclusion from the reactions with LAP (Example 3) and GGT (Example 2)) is recorded as “specifically detected GGT”. Also, the “change of absorption and fluorescence intensity after reaction with GGT” value in assay [1] (0.1 M sodium phosphate buffer pH 7.4, GGT 1.1 U, 37° C.) is “remarkable elevations of absorption and fluorescence intensity were immediately observed”. Further, the “fluorescence intensity versus added GGT amount” value in assay [1] (pH 7.4, 37° C., 9 minutes after addition of enzyme, emission 524 nm) was “linear increase of fluorescence intensity in an added GGT amount-dependent manner”. Also, in assay [2], the “time to specific fluorescence emission of the cancerous part” value is given as “specifically emit fluorescence within several minutes”. The “cancerous tissue fluorescence images 10 minutes after spray” value in assay [2] (10 minutes after the spray) is listed as “cancerous tissues were clearly imaged”. The “cancerous tissue fluorescence images from immediately after spray to 90 seconds” value in assay [2] (excitation 450 to 480 nm, fluorescence 516 to 556 nm) is given as “cancerous tissue images became clearer”. In addition, the “fluorescence of cancer sites in imaging” value in assay [3] is “strong green fluorescence was observed in a cancer site-specific manner”.
